According to US20080155704A1, “Methods and Compositions for Determining in vivo Activity of BiP” (King's College London, priority 2006, published 2008):

Experiments:
[1] = test system: splenocytes and lymph node cells; assay: Intravenous injection of BiP into DBA mice, splenocytes and lymph node cells analysed; format: in vivo, mouse
Description: (§1) The biomarkers were investigated in two situations: 1) when 50.10^6 human peripheral blood mononuclear cells were injected intraperitoneally, with or without BiP (100 μg), into a mouse and the cells were harvested from the peritoneum 11 days later; or (2) BiP (200 μg) was injected intravenously into a mouse and the spleens and lymph nodes removed 11 days later.
Mice were sacrificed at the end of the experiment and the spleens and lymph nodes removed. The spleens and lymph nodes were then gently pushed through a fine mesh to produce a single cell suspension. The cells were then either set up in culture or stained as for human cells following the protocol below.
IF staining of mouse cells was as described for human cells above.
Mice were given a single dose of BiP and left for 11 days before they were sacrificed and their spleens and lymph nodes removed for analysis. The splenocytes and lymph node cells were pooled and used in immunofluorescence and flow cytometry studies. They were also set up in a simple recall antigen proliferation study to check that BiP had been successfully administered at time-point zero.
Cells were examined for: CD3, CD4, CD8, CD25, CD122, CCR4, intracellular CTLA-4 and cells actively producing IL-10 and interferon (IFN)γ.
Thus reduction of IFN (decreased IFN production) is an excellent marker of BiP function in vivo.

allogeneic T cells = assay: Allogeneic proliferative response to early BiP treated DC (tritiated thymidine uptake); format: cell-based, human; conditions: DC differentiated with BiP 20 μg/ml
Description: Allogeneic responses by T cells in culture with irradiated (3,000 rads) early DC (eDC), after only 3d in culture with GM-CSF and IL-4 in the presence or absence of BiP (20 μg/ml) at a ratio of 10:1 PBMC:DC (105:10^4 cells/well). The results are shown as an allogeneic proliferative response (A) following addition of neutralizing anti-IL-10 ( 1/100 dilution) antibody and (B) the pre-treatment (2 h) of monocytes (MO) with p38 inhibitor, SB203580 (SB)(10 μM) or the ERK1/2 inhibitor, PD 98059 (PD)(10 μM), prior to the addition of GM-CSF and IL-4 to the cultures. The proliferation of PBMC to early DC following (C) the addition of BiP 24 h post addition of GM-CSF and IL-4. Proliferation was measured by uptake of tritiated thymidine and recorded as counts per minute (cpm). ELISA was used to detect IL-10 (D) in the culture supernatants and (E) by 7d cultured iDC/iDC(BiP) and fully matured mDC/mDC(BiP) differentiated as described in following 7d culture in GM-CSF and IL-4 with LPS (500 ng/ml) added for the final 2d.
To neutralize IL-10 within the cultures anti-IL-10 antibody (ATCC, Rockville, USA) was added at day 0 (5 μg/ml) to GM-CSF and IL-4 treated cultures in the presence and absence of BiP (20 μg/ml). Two specific cell-permeable inhibitors of the MAPK intracellular signalling pathways were used. SB203580 (SB)(10 μM)((Calbiochem, Darmstadt, Germany) inhibits p38 MAPK, and PD98059 (PD) (10 μM)(Calbiochem), an inhibitor of MAPK extracellular signal regulated kinase (ERK), were tested. MO were pre-treated with the inhibitors for 2 h before adding GM-CSF and IL-4 in the presence or absence of BiP.

IL-8 gene = assay: Affymetrix gene array of BiP treated monocytes; format: cell-based, human; conditions: monocytes cultured with BiP for 24 h compared with unstimulated monocytes
Source text: This was confirmed in two Affymetrix™ gene arrays and also in an inflammatory cytokine gene array.
The transcription profiles of the BiP stimulated and unstimulated MO were generated using the Human GeneChip U95Av2 which simultaneously measures 12500 gene transcripts. To identify genes differentially expressed in the presence of BiP, comparisons were made between the transcription profiles obtained from the MO using the analysis software dChip version 1.2 (32).

T cells = assay: Direct effect of BiP on T cells / PBMC: marker expression; format: cell-based, human
Description: CCR4 and CCR5 expression by T cells.
Immunofluorescent staining was performed as follows when required. Cells were suspended in immunofluorescent buffer (IF) (PBS/0.1% BSA/0.05% azide) washed and incubated for 10 mins on ice with normal human serum. After washing twice in IF buffer, saturating concentrations of fluorescein isothiocyanate (FITC)-, phycoerythrin (PE) or peridium chlorophyll (Per-CP)-conjugated monoclonal antibodies (mAb) recognizing human CD14, CD86, CD80, HLA-DR, CD11c, CD1a, CD83, CD40 and CD85j, (all from Becton Dickinson/PharMingen, Oxford, UK) were added singly or in combination, as stated in the text, to cells for 20 mins on ice. Cells were then washed twice in IF buffer and analysed. Isotype controls, IgG1 and IgG2a (Becton Dickinson, Oxford, UK) were used in parallel.
Another group of regulatory T cells recently described are characterised by the expression of CD8CD122.

[2] = test system: human peripheral blood mononuclear cells; assay: Human PBMC injected intraperitoneally into SCID mice; format: in vivo, human cells in SCID mice
Description: Human peripheral blood mononuclear cells (50.106/mouse), either with concomitant BiP (100 μg/mouse) or with PBS/vehicle, were injected into the peritoneal cavity of SCID mice. After 11d the cells were flushed from the peritoneal cavity and investigated by flow cytometry. (A) Intracellular expression of IL-4 was measured 3 h post ex vivo stimulation with PMA (10 ng/ml) and ionomycin (1 μg/ml) in the presence of monensin. (B) surface expression of HLA-DR CD4+ cells. The mean and standard deviation of 3 experiments are shown
as §1
In each of three experiments, two/three mice were injected either with BiP treated human peripheral blood mononuclear cells (hPBMC) (50.10^6/mouse) and or untreated hPBMC. The mice were sacrificed 11 days later, the peritoneal cavity washed out and the cells collected for immunofluorescence and flow cytometric analysis. The cells were particularly stained for TH2 markers and intracellular anti-inflammatory cytokines.
SCID mice were given an intraperitoneal injection of human PBMC (50.106/mouse) in the presence or absence of BiP (100 μg/mouse) and sacrificed 11d later when the peritoneum was washed out with PBS and the remaining cells collected for analysis. Cells were examined for the intracellular presence of IL-4 or IFNγ and for cell surface molecules such as HLA-DR and CD86.

[3] = BiP 200 μg/mouse i.v., 11 days, n=3
[4] = Example 4, hPBMC recovered from peritoneum after 11 days

Substance: BiP: 78 kD endoplasmic reticulum chaperone protein as disclosed in WO 00/21995; recombinant human protein
- intracellular CTLA-4 ([1]; BiP 200 μg/mouse i.v., 11 days): Increased intracellular CTLA-4
- IL-10 producing cells [1, 3]: 6.1±1.3%
- cells producing IFN gamma after stimulation by concanavalin A [1, 3]: 3.9±1.7%
- % of CD8CD122+ cells ([1]; BiP 200 μg/mouse i.v., 11 days, pooled splenocytes and lymph node cells, n=3): 26.3±3.7%
- IFN production by cells cultured overnight with con A ([1]; cells from mice given BiP 11 days previously (FIG. 5)): significant reduction in IFN production
- proliferation of allogeneic T cells stimulated by iDC(BiP) or mDC(BiP) (allogeneic T cells): significantly reduced proliferation
- IL-8 gene expression (IL-8 gene): downregulated the IL-8 gene
- CCR5 expression by T cells (T cells; PBMC incubated with BiP for four days (FIG. 4)): slightly downregulated
- CCR4 expression by T cells (T cells; PBMC incubated with BiP for four days, three experiments (FIG. 4)): significantly raised
- CD8CD122 expression (T cells; T cells after 7 days incubation with BiP, n=3): 75.6%±23.5%
- cells with intracellular IFNγ [2, 4]: 23.5±4%
- cells with intracellular IL-4 [2, 4]: 16.2±0.5%
- cells with intracellular IL-5 [2, 4]: 29±7%
- intracellular IL-4 in CD4+ cells ([2]; Example 10, BiP 100 μg/mouse, 11 days, ex vivo PMA and ionomycin 3 h, n=5): 38.2±20%
- surface HLA-DR on CD4 T cells ([2]; Example 10, BiP 100 μg/mouse, 11 days, n=5): 50±6.2%
